Measurements as given in patent US11957696B2 (Propella Therapeutics, Inc., priority 2021, dated 2024).

Key:
[1] = DVS water uptake of abiraterone decanoate forms; assay type: physicochemical; conditions: Forms A, B, and C
[2] = molecular target: T1, CYP17A1 (Macaca fascicularis, UniProt Q2XVA1); assay: PD (progesterone, cortisol, dihydrotestosterone, testosterone levels) in chemically castrated monkeys; assay type: in vivo, cynomolgus monkeys
T1 construct: endogenous in cells; host or cells: live male cynomolgus monkeys (in vivo; steroidogenic tissues)
T1 sequence (Q2XVA1 1-508): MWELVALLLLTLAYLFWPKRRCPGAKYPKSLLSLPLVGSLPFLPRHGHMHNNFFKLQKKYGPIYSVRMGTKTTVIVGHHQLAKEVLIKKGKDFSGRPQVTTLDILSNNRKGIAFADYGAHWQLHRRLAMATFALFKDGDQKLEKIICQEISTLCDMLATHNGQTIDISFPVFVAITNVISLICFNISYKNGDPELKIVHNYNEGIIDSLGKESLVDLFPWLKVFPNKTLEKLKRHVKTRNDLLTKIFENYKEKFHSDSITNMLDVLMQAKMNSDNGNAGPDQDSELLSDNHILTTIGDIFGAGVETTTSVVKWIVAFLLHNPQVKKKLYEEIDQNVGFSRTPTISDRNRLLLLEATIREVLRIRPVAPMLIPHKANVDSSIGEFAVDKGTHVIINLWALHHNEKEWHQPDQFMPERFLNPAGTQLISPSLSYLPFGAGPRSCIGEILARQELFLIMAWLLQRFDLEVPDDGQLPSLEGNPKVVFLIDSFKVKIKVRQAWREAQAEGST
Description: The effects of administering dexamethasone and methylprednisolone acetate according to the schedule of this Example were also shown in FIGS. 5A, 5B, 5C, and 5D.

[3] = test system: ACTH; assay: ACTH analysis (plasma) in 13-week study; assay type: in vivo, cynomolgus monkeys
Procedure: Sample Collection for ACTH Analysis (Plasma): Blood samples (approximately 2.5 mL) were collected from all animals via the femoral vein for determination of the plasma concentrations of ACTH. The animals were fasted prior to blood collection except one deviation.

[4] = Abiraterone plasma exposure from abiraterone decanoate formulations with and without benzyl benzoate; assay type: in vivo; conditions: corn oil 70%, benzyl alcohol 10%, benzyl benzoate 20% compared with corn oil 90%, same dose, monkeys
Description: In some embodiments, the abiraterone prodrug formulation can comprise a combination of benzyl alcohol and benzyl benzoate as cosolvents. In some embodiments, the benzyl alcohol can be present in an amount of about 0-20% (e.g., 0-15% or 0-10%, such as about 10%) of the solvent, and benzyl benzoate can be present in an amount of about 0-50% (e.g., 0-35% or 0-30%, such as about 20%) of the solvent, wherein the balance of the solvent can be any one or more of the pharmaceutically acceptable oil described herein, such as corn oil, castor oil, sesame oil, peanut oil, cottonseed oil, and/or Miglyol 812, etc.

## CCCCCCCCCC(=O)O[C@H]1CC[C@@]2(C)C(=CC[C@@H]3[C@@H]2CC[C@]2(C)C(c4cccnc4)=CC[C@@H]32)C1 [Abiraterone Decanoate, abiraterone decanoate]
[1]
  DVS Max H2O uptake: N/A-non-hygroscopic
[2]; 10 mg/kg dosing group
  PD effects relative to abiraterone plasma concentration: prolonged PD effects were observed even after abiraterone plasma concentration dropped below 1 ng/mL
[2]; single dose IM, all three doses
  progesterone, cortisol, dihydrotestosterone and testosterone levels: sustained increase of progesterone level and reduction of cortisol, dihydrotestosterone, and testosterone level
[2]; single dose IM, all three doses (10, 30, 100 mg/kg)
  duration of CYP17A1 inhibition: ≥ 70 days
[3]; 20 mg/kg/dose, Day 8
  ACTH fold change of treated group mean relative to pretreatment (Day −1) mean: 1.72×
[3]; 20 mg/kg/dose, Day 15
  ACTH fold change of treated group mean relative to pretreatment (Day −1) mean: 2.63×
[3]; 20 mg/kg/dose, Day 78
  ACTH fold change of treated group mean relative to pretreatment (Day −1) mean: 2.30×*
[3]; 20 mg/kg/dose, Day 85
  ACTH fold change of treated group mean relative to pretreatment (Day −1) mean: 1.89×*
[3]; 60 mg/kg/dose, Day 8
  ACTH fold change of treated group mean relative to pretreatment (Day −1) mean: 2.55×*
[3]; 60 mg/kg/dose, Day 15
  ACTH fold change of treated group mean relative to pretreatment (Day −1) mean: 2.35×*
[3]; 60 mg/kg/dose, Day 78
  ACTH fold change of treated group mean relative to pretreatment (Day −1) mean: 1.33×*
[3]; 60 mg/kg/dose, Day 85
  ACTH fold change of treated group mean relative to pretreatment (Day −1) mean: 1.36×*
[3]; 200 mg/kg/dose, Day 8
  ACTH fold change of treated group mean relative to pretreatment (Day −1) mean: 4.90×*
[3]; 200 mg/kg/dose, Day 15
  ACTH fold change of treated group mean relative to pretreatment (Day −1) mean: 5.14×*
[3]; 200 mg/kg/dose, Day 78
  ACTH fold change of treated group mean relative to pretreatment (Day −1) mean: 4.65×*
[3]; 200 mg/kg/dose, Day 85
  ACTH fold change of treated group mean relative to pretreatment (Day −1) mean: 4.66×*
[3]; males at ≥20 mg/kg/dose
  ACTH concentrations: increases
[4]
  abiraterone plasma exposure: much higher abiraterone plasma exposure
